In patent US5972678A, “Animal 2-5A dependent RNases” (Cleveland Clinic Foundation, priority 1995, dated 1999):
Positions count from the first letter of the chain named.

Assays:
[1] = tested on: murine 2-5A-dependent RNase (truncated recombinant clone ZB1 and murine L cell enzyme); experiment: UV covalent crosslinking of 32P-2-5A probe with unlabeled oligonucleotide competitors, murine enzyme; type: binding; settings: for concentration that prevents 2-5A probe binding: 32P-2-5A probe 2.4 nM, both recombinant (ZB1) and naturally occurring murine protein; for competition with 2-5A probe binding: competitor 100 nM, recombinant 74 kDa protein (clone ZB1) from wheat germ extract, similar profile with murine L929 cell enzyme
Experimental: FIG. 2A is a specific affinity of truncated murine 2-5A-dependent RNase for 2-5A. UV covalent crosslinking of the ^32 P-2-5A probe (lanes 1-7) to protein is performed after translation reactions in wheat germ extract (5 μl) with murine 2-5A-dependent RNase mRNA (from clone ZB1) (lanes 1-3) or without added RNA (lane 4) or in extract of interferon treated mouse L cells (100 μg of protein) (lanes 5-7). Reactions are without added competitor (lanes 1, 4, and 5) or in the presence of either trimer core. […] Lanes 8 and 9 are produced by incubating the wheat germ extract with ^35 S-methionine in the absence or presence of 2-5A-dependent RNase mRNA, respectively.
Autoradiograms of the dried SDS/10% polyacrylamide gels are shown. Concentrations of the oligonucleotide competitors are indicated. I is inosine.
To obtain recombinant protein for characterization, the cDNA is transcribed and translated in cell-free systems. See Example. 2-5A binding activity is then determined by covalently crosslinking the 2-5A probe to the protein with uv light, for example, Nolan-Sorden, N. L. et al., Anal. Biochem., 184: 298-304 (1990). […] See FIG. 2A, lanes 2 and 3, respectively. There is no detectable 2-5A binding proteins in the wheat germ extract as shown in the incubation without added RNA, FIG. 2A, lane 4. For comparison, a similar profile of 2-5A binding activity is obtained for the 80 kDa 2-5A-dependentRNase from murine L929 cells, incubated without added oligonucleotide or with (A2'p)2 A or p3 (A2'p)2 A as competitors. In a further comparison, covalent linkage of the 2-5A probe to the about 74 kDa protein and to murine L929 cell 2-5A-dependent RNase followed by partial digestion with chymotrypsin produces an identical pattern of six labeled peptides. Similarly, partial digestion of the two labeled proteins with S. aureus V8 protease also produces identical patterns of labeled cleavage products.
The 2-5A binding functions of the recombinant and naturally occurring forms of murine 2-5A-dependent RNase are characterized by covalent crosslinking to the 2-5A probe in the presence of unlabeled 2-5A or 2-5A analogues as competitors. […] In comparison, a 500-fold higher concentration of (A2'p)2 A (10 μM) is required to prevent probe binding to both proteins. See lane 13. The dimer species, p3 A2'pA, is unable to prevent the 2-5A probe from binding to the proteins even at a concentration of 10 μM (lane 18). However, the inosine analogue, p3 I2'pA2'pA, Imai, J. et al., J. Biol. Chem., 260: 1390-1393 (1985), is able to prevent probe binding to both proteins but only when added at a concentration of about 1.0 μM (lane 22).
The synthesis of the 2-5A probe, p(A2'p)2 (br^8 A2'p)2 A[32P]Cp, and its crosslinking to 2-5A-dependent RNase is performed exactly as described. See Nolan-Sorden, N. L. et al., Anal. Biochem., 184: 298-304 (1990). Briefly, the 2-5A probe, about 0.7 to 2.5 nM at […], is incubated for about one hour on ice with cell extract prepared as described, Silverman, R. H. and Krause, D., Lymphokines and Interferons: A Practical Approach, I.R.L. Press, Oxford. England, pp. 149-193 (1987), in the absence or presence of unlabeled oligonucleotide competitors. Covalent crosslinking is done under a uv lamp (308 nm) for one hour on ice and the proteins are separated on SDS/10% polyacrylamide gels. Filter assays for 2-5A binding activity using the 2-5A probe for about one hour on ice, as described in Knight, M. et al., Nature, 288: 189-192 (1980).

[2] = tested on: human 2-5A-dependent RNase (recombinant and HeLa cell enzyme); experiment: UV covalent crosslinking of 2-5A probe with unlabeled competitors, human enzyme; type: binding; settings: competitor 100 nM; recombinant human enzyme from wheat germ extract; same pattern with interferon-treated HeLa cell extract
Experimental: FIG. 5A is specific affinity of recombinant human 2-5A-dependent RNase for 2-5A. Crosslinking of the 2-5A probe (lanes 1-7) to protein is performed after translation reactions in wheat germ extract (5 μl) with human 2-5A-dependent RNase mRNA (lanes 1-3) or without added RNA (lane 4) or in extract of human interferon a treated (1000 units per ml for 16 h) human HeLa cells (350 μg of protein) (lanes 5-7). […] Incubations with ^35 S-methionine are shown in lanes 8 to 12. Lane 8 is with wheat germ extract and human 2-5A-dependent RNase mRNA. Reticulocyte lysate preadsorbed to 2-5A-cellulose is incubated with human 2-5A-dependent RNase MRNA in the absence (lane 9) or presence (lane 10) of cycloheximide, or in the absence of added mRNA (lane 11). […] The positions and relative molecular masses (in kDa) of the marker proteins are indicated.
The 2-5A binding properties of the recombinant and naturally occurring forms of human 2-5A-dependent RNase are compared by uv covalent crosslinking to the 2-5A probe. […] Radiolabeling of the cloned human 2-5A-dependent RNase with the 2-5A probe is not prevented by (A2'p)2 A. See FIG. 5A, lanes 1 and 2. […] See lane 3. The same pattern of 2-5A binding activity is obtained with 2-5A-dependent RNase in an extract of interferon-treated human HeLa cells. […]

[3] = tested on: 2-5A probe; experiment: 2-5A binding activity of nested 3'-deletion mutants, filter binding assay and uv crosslinking assay; settings: protein expressed in wheat germ extract
Source text: See Example and Knight et al. 1980). The positions of the P-loop motifs and the lengths of the translation products are indicated. Clone ZB1 encodes for amino acids designated as 1-656 in Table II, except for the last 5 amino acid residues which are Lys, Pro, Leu, Ser, and Gly. Clone ZB2 encodes for amino acids designated as 1-619 in Table II. Clone ZB3 encodes for amino acids designated as 1-515 in Table II. Clone ZB5 encodes for amino acids designated as 1-474 in Table II. Clone ZB9 encodes for amino acids designated as 1-403 in Table II. Clone ZB10 encodes for amino acids designated as 1-365 in Table II. Clone ZB13 encodes for amino acids designated as 1-294 in Table II. Clone ZB14 encodes for amino acids designated as 1-265 in Table II. Clone ZB15 encodes for amino acids designated as 1-218 in Table II.
To further define sequences involved in 2-5A binding, nested 3'-deletions of the murine 2-5A-dependent RNase cDNA, clone ZB1, are constructed, transcribed in vitro, and expressed in a wheat germ extract. […] The levels of 2-5A binding activity are determined with the 2-5A probe in both a filter binding assay, Knight, M. et al., Nature, 288: 189-192 (1980), and the uv crosslinking assay, Nolan-Sorden, N. L. et al., Anal. Biochem., 184: 298-304 (1990), with similar results. […]

[4] = tested on: 2-5A probe, Br-2-5A-[32P]pCp; type: binding

(A2'p)2 A
concentration that prevents 2-5A probe binding [1]: 10 µM | competition with 2-5A probe binding [1]: fails to interfere with binding of the protein to the 2-5A probe | competition with 2-5A probe binding [2]: not prevented

p3 (A2'p)2 A
concentration that prevents 2-5A probe binding [1]: about 20 nM | competition with 2-5A probe binding [1]: completely prevents probe binding | competition with 2-5A probe binding [2]: effectively competes with the 2-5A probe

p3 A2'pA
concentration that prevents 2-5A probe binding [1]: > 10 µM

p3 I2'pA2'pA
concentration that prevents 2-5A probe binding [1]: about 1.0 μM

B1: Clone ZB15: murine 2-5A-dependent RNase deletion mutant, amino acids 1 to 218, both P-loop motifs deleted (protein, UniProt Q05921 1-218, looked up, fragment)
chain: METPDYNTPQGGTPSAGSQRTVVEDDSSLIKAVQKGDVVRVQQLLEKGADANACEDTWGWTPLHNAVQAGRVDIVNLLLSHGADPHRRKKNGATPFIIAGIQGDVKLLEILLSCGADVNECDENGFTAFMEAAERGNAEALRFLFAKGANVNLRRQTTKDKRRLKQGGATALMSAAEKGHLEVLRILLNDMKAEVDARDNMGRNALIRTLLNWDCENV
2-5A binding activity (in words) [3]: completely lacking in 2-5A binding activity

B2: Clone ZB1: truncated recombinant murine 2-5A-dependent RNase, amino acids 1-656 in Table II (protein, UniProt Q05921 1-656, looked up, fragment)
chain: METPDYNTPQGGTPSAGSQRTVVEDDSSLIKAVQKGDVVRVQQLLEKGADANACEDTWGWTPLHNAVQAGRVDIVNLLLSHGADPHRRKKNGATPFIIAGIQGDVKLLEILLSCGADVNECDENGFTAFMEAAERGNAEALRFLFAKGANVNLRRQTTKDKRRLKQGGATALMSAAEKGHLEVLRILLNDMKAEVDARDNMGRNALIRTLLNWDCENVEEITSILIQHGADVNVRGERGKTPLIAAVERKHTGLVQMLLSREGINIDARDNEGKTALLIAVDKQLKEIVQLLLEKGADKCDDLVWIARRNHDYHLVKLLLPYVANPDTDPPAGDWSPHSSRWGTALKSLHSMTRPMIGKLKIFIHDDYKIAGTSEGAVYLGIYDNREVAVKVFRENSPRGCKEVSCLRDCGDHSNLVAFYGREDDKGCLYVCVSLCEWTLEEFLRLPREEPVENGEDKFAHSILLSIFEGVQKLHLHGYSHQDLQPQNILIDSKKAVRLADFDQSIRWMGESQMVRRDLEDLGRLVLYVVMKGEIPFETLKTQNDEVLLTMSPDEETKDLIHCLFSPGENVKNCLVDLLGHPFFWTWENRYRTLRNVGNESDIKVRKCKSDLLRLLQHQTLEPPRSFDQWTSKIDKNVMDEMNHFYEKRKKNPYQD
2-5A binding activity compared with naturally occurring enzyme (in words) ([4]; uv crosslinking to 2-5A probe with competitors, protein missing about 84 carboxy-terminal amino acids): indistinguishable from that of naturally occurring 2-5A-dependentRNase

B3: Clone ZB1 (Lys^240,274 →Asn): double mutant of clone ZB1, lysines 240 and 274 replaced with asparagine (protein, UniProt Q05921 1-656, looked up, variant K240N K274N)
chain: B2 chain with K240N, K274N
2-5A binding activity, % of the activity of clone ZB1 ([4]; uv crosslinking, phosphorimager analysis of dried gel, wheat germ extract translation products): 12.2%
